Experimental data reported in article PMC2363125 (British Journal of Cancer, 1999).
“And” between values parts separate entries of the source, which are not always exact repeats. Identical values can stand only once. “Also recorded” adds a separate entry of the source.

Columns and labels:
L1210 cells [1] = test: cells; conditions: for CC50: Mus musculus, L1210, 16 h, read-out: LC50; for reduction of nolatrexed LC90: absence of salvageable thymidine, abstract
Excerpt: (§1) In particular, inhibition of thymidylate synthase (TS) is an attractive target for antimetabolite chemotherapy because thymine is the only nucleobase found exclusively in DNA and TS is a key enzyme, possibly the rate-limiting step, in DNA synthesis. One locus of action of 5-fluorouracil (5-FU), which is widely used for the treatment of colorectal, breast and head-and- neck cancer, is TS inhibition following its intracellular conversion to 5-FdUMP. […] Inhibition of TS results in the depletion of intracellular dTTP and, as a result of elevated dUMP levels, an accummulation of dUTP. […] In addition, release of nucleic acids from dead cells may result in high local concen- trations of salvageable nucleosides and bases in tumours. Salvage of pre-formed nucleosides is dependent on uptake across the plasma membrane into the cell. At physiological nucle- oside concentrations the principal mode of nucleoside uptake is via the es and ei equilibrative carriers, described as such on the basis of their sensitivity (es) or insensitivity (ei) to the transport inhibitor nitrobenzylmercaptopurine riboside (NBMPR). […] In addition, potentiation of the cytotoxicity of 5-FU was investigated. […] All other chemicals were obtained from Sigma unless stated otherwise. […] For growth inhibition and cytotoxicity assays, cells were adapted to grow in RPMI medium supplemented with 10% (v/v) dialysed serum (dialysed for 24 h at 4C against two changes of 9 volumes of phosphate-buffered saline (PBS) containing 1 g activated charcoal L-1 and a further two changes of 9 volumes of PBS) to remove thymidine. […] The uptake of 100 M thymidine by […] was followed at 2-second intervals over a 12-second time course in the presence or absence of inhibitor in 1% or 5% (v/v) DMSO. […] Exponentially growing L1210 cells were washed with and resus- pended in ice-cold transport buffer (130 mM sodium chloride, 5 mM potassium chloride, 1 mM magnesium chloride, 5 mM NaH2 PO4 , 10 mM glucose and 10 mM HEPES pH 7.4) at 2-4 x 10^7 cells ml-1 . […] Transport was initiated by adding 50 l of 300 M thymidine in transport buffer, containing 25 Ci ml-1 [methyl-3 H]thymidine (Sp. Act. 1.5-2.2 TBq mmol-1; Amersham, UK) and 2 Ci ml-1 [U-14 C]sucrose (17-27 GBq mmol-1; Amersham), to each tube in turn at 1-second intervals, giving final concentrations of: […] in transport buffer 5 mg ml-1 AGP, 100 M thymidine and 1% or 5% (v/v) DMSO inhibitor. […] The tubes were immediately centrifuged at 12 000g for 2 min at room temperature causing the cells to pass through the oil and into the KOH. […] Cell number and viability in each assay was determined by haemocytometer counting using trypan blue exclu- sion. After centrifugation the tubes were capped and cut in the oil layer such that the bottom portion (cells solubilized in KOH) fell into a 20 ml scintillation vial. […] The rate of thymidine uptake in the presence and absence of inhibitor was calculated by unweighted linear regres- sion analysis of thymidine uptake (pmol 10-6 cells) vs time (seconds) using GraphPad PRISMTM software (GraphPad Software Inc. San Diego, CA, USA). […] Kt and Tmax values were calculated using the equation describing a one-site binding hyperbola, fitted using GraphPad PRISM software. […] The DMSO concentration was controlled so as to be present at 1% (v/v) in the final incubation. Replicate aliquots of the remaining cell suspension were counted to obtain a time zero cell count.

L1210 cells [2] = test: Growth inhibition assay, CB3717 with or without thymidine and transport inhibitor, 48 h cell count; type: cell-based, murine; conditions: for potentiation of CB3717 growth inhibition / reversal of thymidine rescue from CB3717 growth inhibition: 1 μM transport inhibitor, data not shown; for % Control cell growth + 3 M CB3717, + 1 M TdR / % Control cell growth + 3 M CB3717, no TdR / % Control cell growth + 10 M CB3717, + 1 M TdR / % Control cell growth + 10 M CB3717, no TdR: 10 μM transport inhibitor, normalized to inhibitor alone
[3] = tested on: thymidine transport (nucleoside transporter) in L1210 cells; test: Inhibition kinetics of thymidine transport (Kt, Tmax, Dixon plot Ki); conditions: for Ki: read-out: Ki for inhibition of thymidine uptake, L1210, abstract
Excerpt: as §1

in vitro = conditions: mouse
Excerpt: as §1

[4] = tested on: thymidine uptake (nucleoside transport, es and ei equilibrative carriers) in L1210 cells; test: Nucleoside transport inhibition assay (thymidine uptake, rapid mixing technique); type: cell-based, murine; conditions: for IC50: absence of AGP, point-to-point curve; for IC50 / % inhibition of thymidine uptake: L1210
Excerpt: Antimetabolite inhibitors of de novo purine and pyrimidine synthesis are used extensively in cancer chemotherapeutic regimes (Schilsky, 1992). In particular, inhibition of thymidylate synthase (TS) is an attractive target for antimetabolite chemotherapy because thymine is the only nucleobase found exclusively in DNA and TS is a key enzyme, possibly the rate-limiting step, in DNA synthesis. One locus of action of 5-fluorouracil (5-FU), which is widely used for the treatment of colorectal, breast and head-and- neck cancer, is TS inhibition following its intracellular conversion to 5-FdUMP. […] Inhibition of TS results in the depletion of intracellular dTTP and, as a result of elevated dUMP levels, an accummulation of dUTP. This nucleotide pool imbalance contributes to DNA strand breakage and cell death (Curtin et al, 1991). […] Furthermore, resistance to antimetabolities mediated by nucleoside salvage may increase with malignancy (Fox et al, 1991; Kinsella and Harran, 1991). In addition, release of nucleic acids from dead cells may result in high local concen- trations of salvageable nucleosides and bases in tumours. Salvage of pre-formed nucleosides is dependent on uptake across the plasma membrane into the cell. At physiological nucle- oside concentrations the principal mode of nucleoside uptake is via the es and ei equilibrative carriers, described as such on the basis of their sensitivity (es) or insensitivity (ei) to the transport inhibitor nitrobenzylmercaptopurine riboside (NBMPR). […] Two antifolate TS inhibitors were selected for study: the classical antifolate, CB3717 (N10 -pro- pargyl-5,8-dideazafolic acid), and the non-classical antifolate TS inhibitor, nolatrexed (AG337, Thymitaq, 3,4-dihydro-2-amino- 6-methyl-4-oxo-5-(4-pyridylthio)-quinazoline dihydrochloride) (Webber et al, 1996). In addition, potentiation of the cytotoxicity of 5-FU was investigated. […] MATERIALS AND METHODS Drugs CB3717 (a gift from Zeneca Pharmaceuticals, Alderley Park, UK) was dissolved in 0.15 M sodium hydrogen carbonate and stored at 4C. […] All other chemicals were obtained from Sigma unless stated otherwise. Cell culture Murine leukaemia L1210 cells were used because their nucleoside transport characteristics have been well defined (Crawford et al, 1990). Cells were maintained as exponentially growing cultures (< 8 x 10^5 cells ml-1 ) in RPMI-1640 medium supplemented with 10% (v/v) fetal calf serum (Sigma), at 37C in an atmosphere of 5% carbon dioxide in air. […] For growth inhibition and cytotoxicity assays, cells were adapted to grow in RPMI medium supplemented with 10% (v/v) dialysed serum (dialysed for 24 h at 4C against two changes of 9 volumes of phosphate-buffered saline (PBS) containing 1 g activated charcoal L-1 and a further two changes of 9 volumes of PBS) to remove thymidine. […] Cells were routinely tested to exclude mycoplasma contamination (Chen, 1977). Nucleoside transport inhibition assay Thymidine uptake was assayed in L1210 cells using a modifica- tion of the rapid mixing technique of Wohlheuter et al (1978). The uptake of 100 µM thymidine by […] was followed at 2-second intervals over a 12-second time course in the presence or absence of inhibitor in 1% or 5% (v/v) DMSO. In experiments to determine the effect of AGP, the uptake of thymidine was also measured in the presence of 5 mg ml-1 human AGP (Sigma), which is the upper limit of plasma AGP concentrations in cancer patients, i.e. approx- imately 125 M (Kremer et al, 1988).

human cancer cell lines = tested on: human cancer cell lines; parameters: method as in P Smith, manuscript in preparation; conditions: ref P Smith, manuscript in preparation; cited from earlier work
[5] = LC50 alone/LC50 + 1 μM inhibitor
[6] = inhibitor 1 μM, no AGP, 100 μM thymidine
[7] = inhibitor 10 μM + 5 mg ml-1 AGP
[8] = inhibitor 10 μM, no AGP, 100 μM thymidine

| SMILES | potentiation of CB3717 growth inhibition (L1210 cells [2]) | % Control cell growth + 3 M CB3717, + 1 M TdR (L1210 cells [2]; 48 h) [%] | % Control cell growth + 3 M CB3717, no TdR (L1210 cells [2]; 48 h) [%] | % Control cell growth + 10 M CB3717, + 1 M TdR (L1210 cells [2]; 48 h) [%] | % Control cell growth + 10 M CB3717, no TdR (L1210 cells [2]; 48 h) [%] | IC50 [4] | % inhibition of thymidine uptake [4, 6] [%] | % inhibition of thymidine uptake [4, 7] [%] | % inhibition of thymidine uptake [4, 8] [%] | other results |
| --- | --- | --- | --- | --- | --- | --- | --- | --- | --- | --- |
| O=c1[nH]cc(F)c(=O)[nH]1 [5-FU, 5-fluorouracil] |  |  |  |  |  |  |  |  |  | CC50 (L1210 cells [1]): 3700 nM |
| C#CCN(Cc1ccc2nc(N)[nH]c(=O)c2c1)c1ccc(C(=O)N[C@@H](CCC(=O)O)C(=O)O)cc1 [CB3717, N10-propargyl-5,8-dideazafolate, reference compound] |  |  |  |  |  |  |  |  |  | % Control cell growth, 3 M CB3717, + 1 M TdR (L1210 cells [2]; No inhibitor, 48 h): 104%; % Control cell growth, 3 M CB3717, no TdR (L1210 cells [2]; No inhibitor, 48 h): 40%; % Control cell growth, 10 M CB3717, + 1 M TdR (L1210 cells [2]; No inhibitor, 48 h): 107%; % Control cell growth, 10 M CB3717, no TdR (L1210 cells [2]; No inhibitor, 48 h): 5% |
| OCCN(CCO)c1nc(N2CCCCC2)c2nc(N(CCO)CCO)nc(N3CCCCC3)c2n1 [Dipyridamole, 2,6-bis-(diethanolamino)-4,8-di-piperidino-pyrimidopyrimidine] | modest potentiation | 4 | 4 | 1 | 0 |  |  |  |  | type of inhibition of thymidine uptake ([3]; L1210): mixed-type inhibition; apparent Tmax of thymidine transport ([3]; in the presence of 0.3 μM inhibitor, L1210): 8.4 pmol/10-6 cells/s; Ki [3]: 280 nM; reversal of thymidine rescue from CB3717 growth inhibition (L1210 cells [2]): partial reversal; activity at 16 h, 1 µM (in vitro): 100%; EF50 (enhancement factor), nolatrexed (L1210 cells [1]; [5]): 1.3; EF90 (enhancement factor), nolatrexed (L1210 cells [1]; LC90 alone/LC90 + 1 μM inhibitor, listed as DP): 7.5 and 6.1; reduction of nolatrexed LC90 (L1210 cells [1]): > threefold; potentiation of 5-FU cytotoxicity (L1210 cells [1]; mouse): Significant potentiation |
| CC1(C)OCC(COc2nc(N3CCCCC3)c3nc(OCC4COC(C)(C)O4)nc(N4CCCCC4)c3n2)O1 (centres unmarked) [NU3026, 2,6-di-(2,2-dimethyl-1,3-dioxolan-4-yl)-methoxy-4,8-di-piperidinopyrimido-pyrimidine] | modest potentiation | 26 | 8 | 20 | 1 | 1200 nM and 1100 nM | 47 | 62 | 87 |  |
| COCC(COc1nc(N2CCCCC2)c2nc(OCC(COC)OC)nc(N3CCCCC3)c2n1)OC (centres unmarked) [NU3059, 2,6-bis-(2,3-dimethoxypropoxy)-4,8-di-piperidino-pyrimidopyrimidine] | modest potentiation | 10 | 5 | 7 | 0 | 1900 nM | 38 | 67 | 87 | reversal of thymidine rescue from CB3717 growth inhibition (L1210 cells [2]): partial reversal |
| COCCN(CCOC)c1nc(N2CCCCC2)c2nc(N(CCOC)CCOC)nc(N3CCCCC3)c2n1 [NU3060, 2,6-bis[N,N-di(2-methoxy)ethyl]-4,8-di-piperidino-pyrimidopyrimidine] |  | 59 | 29 | 37 | 3 | 2100 nM | 29 | 43 | 86 |  |
| COc1ccc(CNc2nc(N(CCO)CCO)nc3c(NCc4ccc(OC)cc4)nc(N(CCO)CCO)nc23)cc1 [NU3076] |  |  |  |  |  | 250 nM | 56 | 89 | 96 | effect of AGP on inhibition of thymidine uptake ([4]; AGP 5 mg ml-1, inhibitor 1 and 10 μM): not significantly affected; % inhibition of thymidine uptake ([4]; inhibitor 1 μM + 5 mg ml-1 AGP): 46%; type of inhibition of thymidine uptake ([3]; L1210): mixed-type inhibition; Ki [3]: 100 nM; cell survival, inhibitor alone (cytotoxic per se) (L1210 cells [1]; 1 μM inhibitor alone, L1210): 100%; prevention of thymidine rescue from nolatrexed cytotoxicity (L1210 cells [1]; 1 μM inhibitor, 10 μM nolatrexed + 1 μM thymidine): partially blocked; also recorded: reduced but not blocked completely; potentiation of 5-FU cytotoxicity (L1210 cells [1]; 1 μM inhibitor, high 5-FU concentrations (30 and 100 μM), not significant at lower concentrations): Significant potentiation; EF50 (enhancement factor), 5-FU (L1210 cells [1]; [5]): 1.1; EF50 (enhancement factor), nolatrexed (L1210 cells [1]; [5]): 1.6; EF90 (enhancement factor), 5-FU (L1210 cells [1]; LC90 alone/LC90 + 1 μM inhibitor): 1.3; reduction of nolatrexed LC90 (L1210 cells [1]): > threefold; block of thymidine rescue from TS inhibitor cytotoxicity (human cancer cell lines): can block thymidine rescue |
| Cc1ccc2nc(N)[nH]c(=O)c2c1Sc1ccncc1.Cl.Cl [Nolatrexed, 3,4-dihydro-2-amino-6-methyl-4-oxo-5-(4-pyridylthio)-quinazoline dihydrochloride] |  |  |  |  |  |  |  |  |  | effect of 1 μM thymidine on cytotoxic effect of 10 μM nolatrexed (L1210 cells [1]): completely prevented; cells surviving (L1210 cells [1]; 10 μM nolatrexed alone, 16 h): 10-20%; CC50 (L1210 cells [1]): 3100 nM |
